These results are taken from patent US20090317360A1, “ANTI-VIRAL INHIBITORS AND METHODS OF USE” (Genelabs Technologies, Inc., priority 2007, published 2009).

The nature of the assay: Replicon assay (luciferase readout, ET cell line). In kind it is cell-based. Particulars: Hepatitis C virus; 10 μM compound; ET (Huh-lucubineo-ET) cells; luciferase activity measured 48-72 hours after addition; relative to no compound control; read-out: % Inhib. at 10 μM (percent inhibition of replication). As to the method:
A cell line, ET (Huh-lucubineo-ET) is used for screening of compounds for inhibiting HCV RNA dependent RNA polymerase. The ET cell line is stably transfected with RNA transcripts harboring a I389luc-ubi-neo/NS3-3′/ET; replicon with firefly luciferase-ubiquitin-neomycin phosphotransferase fusion protein and EMCV-IRES driven NS3-5B polyprotein containing the cell culture adaptive mutations (E1202G; T12801; K1846T) (Krieger at al, 2001 and unpublished). The ET cells are grown in DMEM (Dulbeco's Modified Eagle's Medium), supplemented with 10% fetal calf serum, 2 mM Glutamine, Penicillin (100 IU/mL)/Streptomycin (100 μg/mL), 1× nonessential amino acids, and 250 μg/mL G418 (“Geneticin”). They are all available through Life Technologies (Bethesda, Md.). The cells are plated at 0.5-1.0×10^4 cells/well in the 96 well plates and incubated for 24 hrs before adding test compound. The compounds are added to the cells to achieve a final concentration of 0.1 nM to 50 μm and a final DMSO (dimethylsulfoxide) concentration of 0.5%. Luciferase activity is measured 48-72 hours later by adding a lysis buffer and the substrate (Catalog number Glo-lysis buffer E2661 and Bright-Glo luciferase system E2620 Promega, Madison, Wis.). Cells should not be too confluent during the assay. Percent inhibition of replication data is plotted relative to no compound control. Under the same condition, cytotoxicity of the compounds are determined using cell proliferation reagent, WST-1(Roche, Germany). The compounds showing antiviral activities, but no significant cytotoxicities are chosen to determine IC50 and TC50. For these determinations, a 10 point, 2-fold serial dilution for each compound was used, which spans a concentration range of 1000 fold. IC50 and TC50 values were calculated by fitting % inhibition at each concentration to the following equation:
% inhibition=100%/[(IC50/[I])^b+1]
where b is Hill's coefficient. […]

By inhibition is commonly meant the drop in the measured response relative to a control, in per cent. As to `O=C(Nc1ccc(N2CCOCC2)cc1)c1cccc(-c2csc(NC(=O)c3ccc(CN4CCS(=O)(=O)CC4)cc3)n2)c1` [Compound 104, 3-{2-[4-(1,1-Dioxo-thiomorpholin-4-ylmethyl)-benzoylamino]-thiazol-4-yl}-N-(4-morpholin-4-yl-phenyl)-benzamide], the inhibition at 10 µM was 95.8%. Consider `O=C(Nc1ccc(N2CCOCC2)cc1)c1ccc(-c2csc(C(=O)Nc3ccc(N4CCOCC4)cc3)n2)cc1` [Compound 111, 4-[4-(4-Morpholin-4-yl-phenylcarbamoyl)-phenyl]-thiazole-2-carboxylic acid (4-morpholin-4-yl-phenyl)-amide], for which the inhibition at 10 µM stood at 34.2%. With `CCCS(=O)(=O)N1CCN(Cc2ccc(NC(=O)c3cccc(-c4csc(C(=O)Nc5ccc(N6CCOCC6)cc5)n4)c3)cc2)CC1` [Compound 116, 4-(3-{4-[4-(Propane-1-sulfonyl)-piperazin-1-ylmethyl]-phenylcarbamoyl}-phenyl)-thiazole-2-carboxylic acid (4-morpholin-4-yl-phenyl)-amide] the figure was 99.5%; with `O=C(Nc1ccc(CN2CCS(=O)(=O)CC2)cc1)c1cccc(-c2csc(C(=O)Nc3ccc(N4CCOCC4)cc3)n2)c1` [Compound 108, 4-{3-[4-(1,1-Dioxo-thiomorpholin-4-ylmethyl)-phenylcarbamoyl]-phenyl}-thiazole-2-carboxylic acid (4-morpholin-4-yl-phenyl)-amide], 63.1%. In the case of `O=C(Nc1ccc(CN2CCS(=O)(=O)CC2)cc1)c1ccc(-c2csc(C(=O)Nc3ccc(CN4CCS(=O)(=O)CC4)cc3)n2)cc1` [Compound 110, 4-{4-[4-(1,1-Dioxo-thiomorpholin-4-ylmethyl)-phenylcarbamoyl]-phenyl}-thiazole-2-carboxylic acid [4-(1,1-dioxo-thiomorpholin-4-ylmethyl)-phenyl]-amide], the inhibition at 10 µM is 99.9%. The same measure for `O=C(Nc1ccc(N2CCOCC2)cc1)c1cccc(-c2csc(C(=O)Nc3ccc(N4CCOCC4)cc3)n2)c1` [Compound 112, 4-[3-(4-Morpholin-4-yl-phenylcarbamoyl)-phenyl]-thiazole-2-carboxylic acid (4-morpholin-4-yl-phenyl)-amide]: 98.5%. The same measure for `CCCS(=O)(=O)N1CCN(Cc2ccc(NC(=O)c3ccc(-c4csc(C(=O)Nc5ccc(CN6CCN(S(=O)(=O)CCC)CC6)cc5)n4)cc3)cc2)CC1` [Compound 114, 4-(4-{4-[4-(Propane-1-sulfonyl)-piperazin-1-ylmethyl]-phenylcarbamoyl}-phenyl)-thiazole-2-carboxylic acid {4-[4-(propane-1-sulfonyl)-piperazin-1-ylmethyl]-phenyl}-amide]: 98%. The same measure for `O=C(Nc1ccc(N2CCOCC2)cc1)c1cccc(-c2csc(C(=O)Nc3ccc(CN4CCS(=O)(=O)CC4)cc3)n2)c1` [Compound 107, 4-[3-(4-Morpholin-4-yl-phenylcarbamoyl)-phenyl]-thiazole-2-carboxylic acid [4-(1,1-dioxo-thiomorpholin-4-ylmethyl)-phenyl]-amide]: 36.5%; for `O=C(Nc1ccc(CN2CCS(=O)(=O)CC2)cc1)c1cccc(-c2csc(NC(=O)c3ccc(N4CCOCC4)cc3)n2)c1` [Compound 109, 3-[2-(4-morpholin-4-yl-benzoylamino)-thiazol-4-yl]-N-[4-(1,1-dioxo-thiomorpholin-4-ylmethyl)-phenyl]-benzamide]: 99.8%. As to `CCCS(=O)(=O)N1CCN(Cc2ccc(NC(=O)c3cccc(-c4csc(C(=O)Nc5ccc(CN6CCN(S(=O)(=O)CCC)CC6)cc5)n4)c3)cc2)CC1` [Compound 115, 4-(3-{4-[4-(Propane-1-sulfonyl)-piperazin-1-ylmethyl]-phenylcarbamoyl}-phenyl)-thiazole-2-carboxylic acid {4-[4-(propane-1-sulfonyl)-piperazin-1-ylmethyl]-phenyl}-amide], the inhibition at 10 µM was 100%.

`O=C(Nc1nc(-c2ccc(C(=O)NC3CC3)cc2)cs1)c1ccc(CN2CCS(=O)(=O)CC2)cc1` [Compound 102, 4-{2-[4-(1,1-Dioxo-thiomorpholin-4-ylmethyl)-benzoylamino]-thiazol-4-yl}-N-cyclopropyl-benzamide]: the inhibition at 10 µM came out at 47.4%. On to `O=C(Nc1ccc(CN2CCS(=O)(=O)CC2)cc1)c1cccc(-c2csc(C(=O)Nc3ccc(CN4CCS(=O)(=O)CC4)cc3)n2)c1` [Compound 113, 4-{3-[4-(1,1-Dioxo-thiomorpholin-4-ylmethyl)-phenylcarbamoyl]-phenyl}-thiazole-2-carboxylic acid [4-(1,1-dioxo-thiomorpholin-4-ylmethyl)-phenyl]-amide], for which the inhibition at 10 µM was determined as 89.5%.
